Consider 13 molecules from patent US4335111A, “Compounds associating peptidyl of aminoacyl residues to lipophilic groups and pharmaceutical compositions containing said new compounds” (priority 1978, dated 1982).

One data set deals with Klebsiella pneumoniae. Put plainly: Anti-infectious activity: protection of mice inoculated with Klebsiella pneumoniae. It counts as in vivo. The following applies: for Protection (%) / Survival at day 10 of infection No/total: 100 μg i.v. at day -1; for Protection (%): i.m. infection with 1.5 × 10^4 viable organisms, difference between percentages of survivors in treated and control group; for Survival at day 10 of infection No/total: infection by the intramuscular route with 1.5 × 10^4 viable organisms; for % protection: difference of percentages of survivors, treated vs control group.

In a further data set the test system is adrenalectomized mice. The following applies: 100 μg injected intravenously into five adrenalectomized mice.
The conditions of data set [1]: concentration as high as 100 μg/ml.
The subject of another data set is rabbits. Particulars: doses as high as 5 mg/kg of body weight.
The mark [2] stands for this setting: 100 μg i.v. 24 H before infection, infection 3.10^4 K.p. i.m., 24 mice at day 0.
Where [3] appears, read: 100 μg i.v. 24 H before infection, infection 4.10^3 K.p. i.v., 24 mice at day 0 (8 for glyceryl-mycolate).

Turning to “1-O(L-Ala-D-isoAsn-L-Ala)-glycerol-3-mycolate”, in the data set with Klebsiella pneumoniae, the “Protection (%)” value is recorded as 37% and the “Survival at day 10 of infection No/total” value is listed as 16/32.

Regarding “1-O-(β-Ala-D-isoGln-L-Ala)-glycerol-3-mycolate hydrochloride”, in the data set with Klebsiella pneumoniae, the “Protection (%)” value came out at 25% and the “Survival at day 10 of infection No/total” value is on record as 12/32.

With “1-O-(L-Ala-D-Gln-L-Ala)-glycerol-3-mycolate”, in the data set on Klebsiella pneumoniae, the “Protection (%)” value was determined as 12% and the “Survival at day 10 of infection No/total” value was 8/32.

`CCCCCCCCCCOC(=O)C(C)NC(=O)CCC(NC(=O)C(C)N)C(N)=O.Cl` [DP--L--Ala--decyl ester, L-Ala-D-isoGln-L-Ala-n-decylester hydrochloride]: in the data set with Klebsiella pneumoniae, the “Protection (%)” value is 0% and the “Survival at day 10 of infection No/total” value is reported as 1/24.

On to “1-O-(L-Ala-D-isoGln-L-Ala)-glycerol-3-corynomycolate”, for which, in the data set with Klebsiella pneumoniae, the “Protection (%)” value was 28% and the “Survival at day 10 of infection No/total” value was 11/32.

Turning to `CCCCCCCCCCCCCCCOC(=O)[C@H](C)NC(=O)CC[C@@H](NC(=O)[C@H](C)N)C(N)=O.Cl` [DP--L--Ala--pentadecylester, L-Ala-D-isoGln-L-Alan-n-pentadecylester hydrochloride], in the data set with Klebsiella pneumoniae, the “Protection (%)” value is reported as 4% and the “Survival at day 10 of infection No/total” value is given as 4/32.

“1-O(L-alanyl-D-isoglutaminyl-L-alanyl)glycerol-3-mycolate”: the “death of adrenalectomized mice” value in the data set with adrenalectomized mice was “did not cause death of any of them”. Moreover, the Limulus test result in data set [1] was “negative”. Besides, in the data set on rabbits, the “hyperthermizing (pyrogenic) effect” value is listed as “no hyperthermizing effect”. Further, in the data set on Klebsiella pneumoniae (setting [2]), the “Number of mice day 3” value stood at 23, the “Number of mice day 5” value was 20 and the “Number of mice day 10” value is listed as 17. For the same molecule, the “% protection” value in the data set with Klebsiella pneumoniae (100 μg i.v. 24 H before infection, infection 3.10^4 K.p. i.m.) amounted to 37%. In addition, in the data set with Klebsiella pneumoniae (setting [3]), the “Number of mice day 3” value is listed as 21, the “Number of mice day 5” value is recorded as 21 and the “Number of mice day 10” value is 21. Besides, the “% protection” value in the data set with Klebsiella pneumoniae (100 μg i.v. 24 H before infection, infection 4.10^3 K.p. i.v.) is on record as 79%. For the same molecule, in the data set with Klebsiella pneumoniae, the “Protection (%)” value is reported as 70% and the “Survival at day 10 of infection No/total” value was 31/40.

For `CCCCCCCCCCCCCCCCCC(=O)OCC(O)COC(=O)[C@H](C)NC(=O)CC[C@@H](NC(=O)[C@H](C)N)C(N)=O.Cl` (stereo partly drawn) [1-O-(L-Ala-D-isoGln-L-Ala)-glycerol-3-stearate hydrochloride], in the data set with Klebsiella pneumoniae, the “Protection (%)” value came to 8% and the “Survival at day 10 of infection No/total” value was 4/24.

Turning to “1-O-(L-alanyl)-glycerol-3-mycolate hydrochloride [1-O--(L--Ala)--glycerol-3-mycolate]”, in the data set on Klebsiella pneumoniae, the “Protection (%)” value is 35% and the “Survival at day 10 of infection No/total” value is given as 16/40.

Regarding “1-O-(D-isoGln-L-Ala)-glycerol-3-mycolate hydrochloride”, in the data set with Klebsiella pneumoniae, the “Protection (%)” value worked out at 47% and the “Survival at day 10 of infection No/total” value is 28/49.

Take “glycerol-3-mycolate [Glyceryl-mycolate, reference compound]”: in the data set on Klebsiella pneumoniae (mouse, in vivo, iv), the “Number of mice day 3” value is given as 1, the “Number of mice day 5” value is recorded as 1, the “Number of mice day 10” value is listed as 1 and the “anti-infectious activity (in words)” value is given as “devoid of significant activity”.

With `CCCCCCCCCCCCCCCCCC(=O)OCC(COC(=O)[C@H](C)NC(=O)CC[C@@H](NC(=O)[C@H](C)N)C(N)=O)OC(=O)CCCCCCCCCCCCCCCCC.Cl` (stereo partly drawn) [1-O-(L-Ala-D-isoGln-L-Ala)-glycerol-2,3-distearate hydrochloride], in the data set on Klebsiella pneumoniae, the “Protection (%)” value was found to be 12% and the “Survival at day 10 of infection No/total” value is listed as 5/24.

As to “1-O-(L-alanyl-L-isoglutaminyl-L-alanyl)-glycerol-3-mycolate hydrochloride”, in the data set on Klebsiella pneumoniae, the “Protection (%)” value turned out to be 12% and the “Survival at day 10 of infection No/total” value is 7/32.
